Measured values published in patent US20090232909A1, “Method for determining physiological effects of hemoglobin” (priority 1999, published 2009).

Molecular target: Hb (Homo sapiens, UniProt P68871+P69905)
Assay: Titration of normoxic Hb with NO, fitted UV-visible difference spectra
Type: biochemical
Set-up: purchased Apex Bioscience (Research Triangle Park, N.C.)
Experimental: Air-oxygenated Hb was titrated with 0.22 μM NO. Samples were analyzed immediately after NO addition by UV-visible spectrophotometry. Time between additions varied from 3 to 5 minutes.
The extinction coefficient spectra of metHb, deoxyhb, iron nitrosylHb and oxyHb were generated from pure solutions of each species. HbA was diluted into PBS (pH 7.4) to a known final heme concentration [as calculated by the pyridine-hemochromagen method (Antonini, E., et al., p. 13 in Frontiers in Biology, Neuberger, A. and Tatum, E. L. eds., North-Holland Publishing, Co., Amsterdam, London, 1971)]. MetHb was synthesized by adding excess K3FeCN6. DeoxyHb was measured after the addition of dithionite, and nitrosyl- and oxyHb were measured following saturation with each ligand.
Difference spectra were obtained by subtracting the UV-visible spectrum of a given sample before the addition of NO from those after. The simple competition model discussed above, predicts that such difference spectra could be approximated by a linear combination of two standard difference spectra: an oxyHb minus metHb spectrum, which gauges the progress of the NO oxidation reaction, and a deoxyHb minus iron nitrosyHb, which gauges the NO addition reaction; the sum of the combining coefficients is fixed by the mass balance ([NO]0). Standard difference spectra were obtained from UV-visible spectra of authentic samples of metHb, oxyHb, nitrosylHb, and deoxyHb. We determined combining coefficients by a least-squares fitting procedure. Inasmuch as the deoxy- and/or oxyheme concentrations can decline during the competition, an additional component (deoxyHb minus oxyHb) could be expected.
(A) Nitrosyl content of oxyHb (10 mM phosphate 100 μM DTPA, pH 7.4) after exposure to 1.2 μM NO, as measured by photolysis-chemiluminescence (Stamler, J. S., et al., Science, 276:2034-2037, 1997). Nitrosyl yield increases as a function of Hb concentration (P<0.05). Solid symbols, absolute yield of NO bound to Hb (FeNO plus SNO); open symbols, percentage of NO added. Data shown are the average of 7 to 19 experiments±SE. (B) Standard difference spectra of metHb (solid line), deoxyHb (dotted line), and iron nitrosylHb (dashed line) vs. oxyHb. (C) Difference spectra generated from the exposure of NO to normoxic (≈99% oxygen saturation) Hb. NO was added (in 10 aliquots totaling 2.2 μM) to 33 μM Hb in 100 mM phosphate (solid line) or 10 mM phosphate (dotted line) or 10 mM phosphate plus 0.05% borate (dashed line). […] Specifically, spectra in C were fitted, by a least-squares process, to either the simple competition model or the cooperativity model without a mass balance constraint. Cooperativity is present if add increases above that reported in the literature, as a function of oxygen tension.

[N]=O [NO, nitric oxide]
iron nitrosylHb in fitted difference spectrum (2.2 μM NO, 33 μM Hb, 10 mM phosphate, ≈99% O2): 54%
metHb in fitted difference spectrum (2.2 μM NO, 33 μM Hb, 100 mM phosphate, ≈99% O2): 95%
added NO accounted for by the spectra (10 mM (low) phosphate): 50%
iron nitrosylHb in fitted difference spectrum (10 mM phosphate plus 0.05% borate): 85%
added NO accounted for by the spectra (low phosphate plus borate): 80%
